Source: PubChem BioAssay AID1645863 (Buhrlage Lab, Dana-Farber Cancer Institute and Novartis …, 2021)
pIC50: −log10 of the molar value. Calls of active or inactive are those of the source. The rule behind the calls is not given here.

biological target: Ubiquitin carboxyl-terminal hydrolase 10 (Homo sapiens) (UniProt Q14694); assay: ubiquitin-specific protease 10 DUB inhibitors, concentration-effect, biochemical, verification of primary screen actives (AID 1645863); settings: USP10 deubiquitinase enzymatic assay;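 note: potency values describe inhibition of USP10 cleavage of a fluorogenic ubiquitin substrate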
Sequence (Q14694 whole entry, looked up): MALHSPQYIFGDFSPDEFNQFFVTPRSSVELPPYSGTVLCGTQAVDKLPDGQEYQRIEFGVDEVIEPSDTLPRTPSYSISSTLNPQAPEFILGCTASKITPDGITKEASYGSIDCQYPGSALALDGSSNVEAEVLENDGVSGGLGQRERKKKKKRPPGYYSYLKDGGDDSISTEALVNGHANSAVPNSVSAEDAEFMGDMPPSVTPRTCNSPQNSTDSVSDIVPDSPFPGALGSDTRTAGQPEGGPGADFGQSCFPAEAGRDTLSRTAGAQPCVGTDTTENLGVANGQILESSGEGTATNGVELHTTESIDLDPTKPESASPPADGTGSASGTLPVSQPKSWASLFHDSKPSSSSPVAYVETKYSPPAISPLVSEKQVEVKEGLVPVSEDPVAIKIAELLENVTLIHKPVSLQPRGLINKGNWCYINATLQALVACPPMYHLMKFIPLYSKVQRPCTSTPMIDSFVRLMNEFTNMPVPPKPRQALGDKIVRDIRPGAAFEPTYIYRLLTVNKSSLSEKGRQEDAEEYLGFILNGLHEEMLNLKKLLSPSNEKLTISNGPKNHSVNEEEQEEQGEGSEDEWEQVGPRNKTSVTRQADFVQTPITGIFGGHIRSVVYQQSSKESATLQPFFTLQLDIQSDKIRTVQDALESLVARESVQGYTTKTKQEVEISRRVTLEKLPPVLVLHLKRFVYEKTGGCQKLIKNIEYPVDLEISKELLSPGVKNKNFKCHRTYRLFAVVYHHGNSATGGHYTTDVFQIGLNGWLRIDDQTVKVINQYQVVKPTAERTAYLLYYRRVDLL

Row | SMILES | IC50 | pIC50
1 | Cc1cc(O)c(=O)cc2c1C[C@H]1CC(C)(C)/C=C/C[C@@]3(C)Oc4cc(=O)c(O)cc(C)c4C[C@@H]3C[C@H](O)[C@]1(C)O2 | > 40 µM (inactive) | 
2 | Cc1ccc(Cn2c(C(=O)O)c(CNCc3ccco3)c3ccccc32)cc1 | > 40 µM (inactive) | 
3 | CC1Oc2cc3c(-c4c(O)cc(O)c5c(O)c6c(cc45)OC(C)C(C)C6=O)c(O)cc(O)c3c(O)c2C(=O)C1C (stereo unspecified) | > 40 µM (inactive) | 
4 | COCCCN1CCS(=O)(=O)c2c(Cl)c(F)nc(Oc3ccccc3F)c21 | > 40 µM (inactive) | 
5 | CCOC(=O)c1ccc(NC(=O)Cn2c(=O)n(-c3ccc(CC(=O)NCc4ccco4)cc3)c(=O)c3ccccc32)cc1 | > 40 µM (inactive) | 
6 | O=C(/C=C/c1c(F)cccc1Cl)N1CCc2ccccc2C1 | > 40 µM (inactive) | 
7 | COc1ccc(Nc2nnc(Cc3ccc(Cl)cc3)c(=O)[nH]2)cc1 |  | 4.73
8 | Cc1ccc(C(=O)O)cc1NC(=O)C(Sc1cccc(NC(=O)c2cccc(Cl)c2)c1)c1ccccc1 (stereo unspecified) | > 40 µM (inactive) | 
9 | Cc1ccc(Cn2c(=O)c3ncccc3n(CC(=O)NCc3ccc(F)cc3)c2=O)cc1 |  | 4.58
10 | Cn1c(=O)c2nc(-c3ccc(Cl)cc3)nnc2n(C)c1=O |  | 5.49
11 | O=[N+]([O-])c1ccc2c(c1)nc1n2CCN(Cc2ccco2)C1 | > 40 µM (inactive) | 
12 | NC(=O)c1nc(-c2cccnc2)nc2c1[nH]c(=O)n2-c1ccc2c(c1)OCO2 | > 40 µM (inactive) | 
13 | COc1ccc(CCNC(=O)Cn2c(=O)c3sccc3n(Cc3cccc([N+](=O)[O-])c3)c2=O)cc1OC |  | 4.80
14 | COc1ccc2c(c1)CCc1c-2n[nH]c1C(=O)Nc1cc(C)on1 | > 40 µM (inactive) | 
15 | N#Cc1cc(C(=O)c2cc(Cl)ccc2O)cn(-c2ccccn2)c1=O | > 40 µM (inactive) | 
16 | Cc1cc(C)c(C#N)c(N2CCN(CCOc3ccc(Cl)cc3)CC2)n1 | > 40 µM (inactive) | 
17 | Cc1sc(NC(=O)Cn2nnc3ccccc32)nc1-c1ccc2c(c1)CCN2C(=O)c1ccccc1F |  | 4.79
18 | Cc1ccc(Nc2nc(O)c(CC(=O)Nc3cccc(Cl)c3C)s2)cc1C |  | 4.60

Row | SMILES | IC50 | pIC50
19 | Cc1ccc(N2CC(c3nnc(NC(=O)CCc4ccccc4)s3)CC2=O)cc1 (stereo unspecified) | > 40 µM (inactive) | 
20 | COc1ccc(CNc2ccc(C(=O)OCc3ccccc3F)cc2S(=O)(=O)Nc2cccc(OC)c2)cc1 | > 40 µM (inactive) | 
21 | O=C(c1ccc2occc2c1)N1CCC(S(=O)(=O)c2ccc(-c3ccco3)cc2)CC1 | > 40 µM (inactive) | 
22 | CCOc1ccc(-c2noc(-c3nn(-c4cccc(OC)c4)ccc3=O)n2)cc1 | > 40 µM (inactive) | 
23 | COc1ccc(-c2ccc(SCC(=O)Nc3ccc(F)cc3)nn2)cc1OC | > 40 µM (inactive) | 
24 | COc1ccc(CCNC(=O)Cn2c(=O)n(-c3ccc(CC(=O)NCCc4ccccc4)cc3)c(=O)c3ccccc32)cc1OC | > 40 µM (inactive) | 
25 | O=C(Cn1c(=O)n(Cc2ccc3c(c2)OCO3)c(=O)c2ccccc21)NCc1ccco1 |  | 4.52
26 | COCC(=O)N1CCC(n2c(C3CC3)nc3sc(C)c(C)c3c2=O)CC1 | > 40 µM (inactive) | 
27 | Cc1ccc(C(=O)c2cn(CC(=O)Nc3ccc(F)c(F)c3)c3ccc(F)cc3c2=O)cc1 | > 40 µM (inactive) | 
28 | Cc1cccc(OCCn2c(CCNC(=O)C3CCCCC3)nc3ccccc32)c1 |  | 4.79
29 | O=C(Oc1ccc2cc(Br)ccc2c1)c1ccncc1 | > 40 µM (inactive) | 
30 | Nc1c(-c2nc(-c3ccccc3Cl)no2)nnn1-c1ccc(Cl)cc1 |  | 4.94
31 | CCc1noc(-c2ccn3c(CC(=O)Nc4ccccc4C)nnc3c2)n1 |  | 5.10
32 | COc1ccccc1-c1noc(CCCC(=O)Nc2ccccc2)n1 | > 40 µM (inactive) | 
33 | Cc1nc(N2CCCC2)ncc1-c1cc(=O)[nH]c(Nc2ccc(Cl)cc2Cl)n1 |  | 4.91
34 | CCc1ccc(NC(=O)C(C)OC(=O)/C=C/c2ccc(S(=O)(=O)Nc3cccc(S(N)(=O)=O)c3)cc2)cc1 (stereo unspecified) |  | 4.66
35 | CN(C)S(=O)(=O)c1ccc(NC(=O)CN2CCCc3ccccc32)cc1 | > 40 µM (inactive) | 
36 | COc1ccccc1CN1CCC(c2cc(=O)[nH]c(-c3cccnc3)n2)CC1 | > 40 µM (inactive) | 
